Assay results taken from patent US20050137121A1, “Inhibition of invasive remodelling” (priority 1996, published 2005).
Values joined by “and” are separate entries in the source; they are usually repeats but may differ in a detail not shown here. Equal values may be shown once. Read-outs that look alike come from different tables or passages of the source. Marks after values point to notes of the source that are not given here.

Key:
mouse uPA = experiment: Mouse specific uPA ELISA of xenograft tumour homogenates; type: in vivo; details: versus tumours from mock-treated animals, 125 mg/kg BB-94 daily
Description: Tumours from untreated control mice and from mice receiving BB94 were homogenized and assayed for mouse uPA content using a mouse specific uPA ELISA.

plg^−/− mice [1] = test system: plg^−/− mice
Description: In the evening, female plg^−/− mice (8-10 weeks old) were placed in cages together with male plg^−/− mice of proven potency.

[2] = test system: gelatinase B, collagenase-3, stromelysin-1, gelatinase A mRNA; experiment: MMP mRNA expression in wound tissue by in situ hybridization; type: in vivo, mouse; details: wild-type and Plg-deficient mice, 100 mg/kg daily, versus mock treated
Procedure: In parallel experiments, the mice were sacrificed and tissue sections prepared from the wound site. The tissue sections were analyzed for expression of various metalloproteases by in situ hybridisation and for matrix content by staining.
In situ hybridization. […] The mouse macrophage elastase expression system was investigated with a single probe, while the expression of all other metalloproteases were investigated with two different non-overlapping probes, which in all cases gave identical results.

plg^+/+ mice [3] = details: 2.5 mg i.p. daily, 5 mice
[4] = biological target: angiotensin converting enzyme (ACE) (Homo sapiens, UniProt P12821); details: very weak inhibition; a million-fold higher than for the metalloproteases; cited from earlier work
Chain of angiotensin converting enzyme (ACE) (P12821 30-1306, species assumed): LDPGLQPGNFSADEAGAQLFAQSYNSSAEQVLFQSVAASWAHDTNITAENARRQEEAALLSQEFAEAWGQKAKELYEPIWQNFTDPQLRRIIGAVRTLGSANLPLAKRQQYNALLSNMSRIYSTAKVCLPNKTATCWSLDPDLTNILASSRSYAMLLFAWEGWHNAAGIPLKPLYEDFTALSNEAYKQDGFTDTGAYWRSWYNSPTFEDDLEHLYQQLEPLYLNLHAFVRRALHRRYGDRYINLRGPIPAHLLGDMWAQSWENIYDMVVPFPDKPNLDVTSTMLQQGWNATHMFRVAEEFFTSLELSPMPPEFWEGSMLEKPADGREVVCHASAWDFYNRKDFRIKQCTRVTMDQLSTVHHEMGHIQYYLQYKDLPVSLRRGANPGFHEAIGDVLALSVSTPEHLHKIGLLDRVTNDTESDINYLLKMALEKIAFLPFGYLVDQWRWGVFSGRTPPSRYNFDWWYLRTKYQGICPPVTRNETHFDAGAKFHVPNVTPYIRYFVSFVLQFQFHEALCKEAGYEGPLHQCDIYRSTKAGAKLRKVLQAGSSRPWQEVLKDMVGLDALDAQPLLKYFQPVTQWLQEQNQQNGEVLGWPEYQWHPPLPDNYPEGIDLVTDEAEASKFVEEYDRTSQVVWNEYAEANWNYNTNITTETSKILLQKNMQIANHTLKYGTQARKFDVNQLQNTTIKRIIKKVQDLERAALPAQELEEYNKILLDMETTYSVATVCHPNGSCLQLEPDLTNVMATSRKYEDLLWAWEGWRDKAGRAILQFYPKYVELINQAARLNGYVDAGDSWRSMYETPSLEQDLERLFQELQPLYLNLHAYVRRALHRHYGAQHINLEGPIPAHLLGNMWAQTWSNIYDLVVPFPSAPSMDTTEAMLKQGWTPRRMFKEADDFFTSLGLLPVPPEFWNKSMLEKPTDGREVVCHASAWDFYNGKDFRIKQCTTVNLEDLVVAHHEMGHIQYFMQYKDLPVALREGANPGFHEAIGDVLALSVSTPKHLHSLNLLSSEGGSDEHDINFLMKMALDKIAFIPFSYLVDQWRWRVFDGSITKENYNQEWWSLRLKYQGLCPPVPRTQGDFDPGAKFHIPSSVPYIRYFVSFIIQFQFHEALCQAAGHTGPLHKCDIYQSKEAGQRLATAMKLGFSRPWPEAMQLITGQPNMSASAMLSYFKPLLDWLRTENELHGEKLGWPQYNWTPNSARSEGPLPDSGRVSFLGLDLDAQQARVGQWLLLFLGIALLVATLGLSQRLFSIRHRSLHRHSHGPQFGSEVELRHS

plg^+/+ mice [5] = experiment: Wound healing, 20 mm full thickness skin incision; type: in vivo, mouse; details: for time after which all wounds were healed: aprotinin 13,000 KIU and/or tranexamic acid 10 mg per day in three i.p. injections, untreated 17 days
Description: (§1) Four groups of mice were set up, consisting of 12 plg^−/− mice (group 1), another 12 plg^−/− mice (group 2), 12 plg^+/+ mice (group 3) and another 12 plg^+/+ mice (group 4). All mice were then wounded with a standardised 20 mm long, full thickness skin incision on the back.
(§2) Each day after wounding the length of the open wounds was carefully measured and recorded. The time taken for each skin wound to completely close was also noted.
(§3) The time taken for each skin wound to completely close was also noted.
as §3, §3

Lewis lung carcinoma = test system: Lewis lung carcinoma
Procedure: Four groups of 17 mice were injected subcutaneously with Lewis lung carcinoma tissue mince (approx. 1.0×10^6 cells). The first group (CON) were treated only with buffered vehicle. The second group (TA/AP) was treated i.p. three times each day with a mixture of tranexamic acid (TA) and aprotinin (AP), so that the total dosage was 10 mg TA and 13,000 KIU AP per day per mouse. […] The tumour growth in the mice was monitored every 2-3 days by careful measurement with callipers of the longest and shortest axes of the palpable tumours, and the calculated volume was plotted as a function of time. The growth rate of the tumours was followed until death and the survival of mice in the four groups was analyzed by a Kaplan-Meier plot. Histological sections from the primary murine Lewis Lung carcinoma were analyzed by in situ hybridization for the expression of stromelysin-1 and gelatinase-B.

Plg-deficient mice = experiment: Keratinocyte migration distance in skin wounds (morphometry); type: in vivo, mouse; details: 100 mg/kg daily for 7 days after skin wounding
Procedure: (§4) Keratinocyte migration. […] 18-20 sections of wound tissue from each group of mice were then analyzed microscopically, and the keratinocyte migration distance along the base of the epidermal outgrowth from the wound edge to the tip of the wedge (see Rømer et al., FIG. 2) was measured blindly by computer-assisted morphometry.

wild-type mice = experiment: as above; type: in vivo, mouse; details: 100 mg/kg daily for 7 days after skin wounding
Procedure: as §4

plasmin = plasmin (Homo sapiens, UniProt P00747); details: very weak inhibition; a million-fold higher than for the metalloproteases; cited from earlier work
Chain of plasmin (P00747 581-810 limits assumed, species assumed): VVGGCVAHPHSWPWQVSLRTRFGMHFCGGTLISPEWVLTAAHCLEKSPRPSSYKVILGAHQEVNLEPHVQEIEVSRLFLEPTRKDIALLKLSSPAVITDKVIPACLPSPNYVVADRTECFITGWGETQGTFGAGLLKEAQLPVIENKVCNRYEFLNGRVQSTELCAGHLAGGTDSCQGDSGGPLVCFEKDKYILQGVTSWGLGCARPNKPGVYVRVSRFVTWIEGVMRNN
Chain of plasmin (P00747 97-580 partner limits assumed, species assumed): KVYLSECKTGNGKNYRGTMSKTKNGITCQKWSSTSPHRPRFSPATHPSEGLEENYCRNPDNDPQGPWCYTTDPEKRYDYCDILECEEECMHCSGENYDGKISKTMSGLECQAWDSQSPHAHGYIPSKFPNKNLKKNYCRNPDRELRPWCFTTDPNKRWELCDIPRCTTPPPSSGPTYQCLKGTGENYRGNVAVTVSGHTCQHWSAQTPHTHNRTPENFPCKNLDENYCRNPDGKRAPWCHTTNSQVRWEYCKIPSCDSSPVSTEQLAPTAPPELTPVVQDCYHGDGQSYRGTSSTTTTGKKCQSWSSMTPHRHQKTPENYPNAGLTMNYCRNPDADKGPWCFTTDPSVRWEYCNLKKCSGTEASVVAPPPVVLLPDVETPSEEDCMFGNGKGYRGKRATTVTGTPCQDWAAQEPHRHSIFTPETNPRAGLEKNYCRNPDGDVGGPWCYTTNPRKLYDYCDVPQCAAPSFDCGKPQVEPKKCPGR

plg^+/+ mice [6] = details: Galardin 2.5 mg, aprotinin 13,000 KIU and tranexamic acid 10 mg per day i.p.
Description: In the evening, wild-type (plg^+/+) female mice were placed together with plg^+/+ male mice of proven potency. Bach morning the females were closely examined for the characteristic vaginal “plugs” formed after mating, and the mated females were removed and allocated to four groups.

stromelysin-1 (MMP-3) = stromelysin-1 (MMP-3) (Homo sapiens, UniProt P08254); details: cited from earlier work
Chain of stromelysin-1 (MMP-3) (P08254 100-477, species assumed): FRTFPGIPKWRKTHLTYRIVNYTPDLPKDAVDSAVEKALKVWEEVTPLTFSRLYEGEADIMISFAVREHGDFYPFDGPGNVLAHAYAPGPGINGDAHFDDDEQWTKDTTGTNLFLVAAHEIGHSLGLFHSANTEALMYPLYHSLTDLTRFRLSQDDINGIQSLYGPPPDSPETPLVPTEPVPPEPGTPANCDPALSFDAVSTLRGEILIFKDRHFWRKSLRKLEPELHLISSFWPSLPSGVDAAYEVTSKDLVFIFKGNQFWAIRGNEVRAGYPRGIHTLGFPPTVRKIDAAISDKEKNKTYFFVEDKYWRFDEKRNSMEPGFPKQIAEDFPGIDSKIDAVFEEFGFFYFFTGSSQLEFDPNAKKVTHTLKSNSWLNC

plg^−/− mice [7] = experiment: Wound healing, 20 mm full thickness skin incision; type: in vivo, mouse; details: Galardin 2.5 mg i.p. once daily
Description: as §1, with “The methods used followed those described by Rømer et al, 1996. Four” for “Four”
as §2

plg^−/− mice [8] = experiment: Post-partum uterine involution (uterus weight); type: in vivo, mouse
Description: (§5) Treatment was continued to 4 days post-partum and on the fifth day post-partum the mice were sacrificed and the uteri removed, dissected free of adhering fatty tissue, and blotted dry before weighing.

plg^+/+ mice [9] = experiment: Post-partum uterine involution (uterus weight); type: in vivo, mouse
Description: as §5

plg^−/− mice [10] = experiment: Post-lactational mammary gland involution (gland weight); type: in vivo, mouse
Description: (§6) After mice had given birth, the litter was taken away from the mother and adjusted to eight pups, adding pups from other mothers if necessary in order to provide a constant feeding load on each mother. Lactation and feeding with the eight pups were allowed to proceed for 7-8 days, at which time the litter was removed (day 1).

plg^+/+ mice [11] = experiment: as above; type: in vivo, mouse
Description: as §6

[12] = Biological half-life of aprotinin in blood plasma; type: in vivo, mouse; details: single i.p. injection of 2.1 mg
Procedure: Fifteen mice (weighing approx. 25 g each) were injected i.p. with 0.75 ml of aprotinin solution (20,000 KIU/ml; approx. 2.1 mg) and at time intervals of 0.5, 1.5, 3.0, 6.0 and 24 h thereafter three mice were sacrificed and blood collected by cardiac puncture into citrate anti-coagulant tubes. Each plasma sample was ultrafiltrated through a 20,000 MW cut-off membrane, and the aprotinin level in the ultrafiltrate was determined by inhibition of the calorimetric activity of a standard trypsin solution.

[13] = 2.5 mg/mouse i.p. daily from weaning day 2, weighed day 5, single animals
[14] = 2.5 mg/mouse i.p. daily, weaning day 5

Compound: CNC(=O)[C@H](Cc1ccccc1)NC(=O)[C@H](CC(C)C)[C@H](CSc1cccs1)C(=O)NO [BB-94, Batimastat]
- upregulation of mouse uPA in the tumours (mouse uPA): ~2 fold

Compound: CNC(=O)[C@H](Cc1c[nH]c2ccccc12)NC(=O)[C@@H](CC(=O)NO)CC(C)C [Galardin™]
- % pregnant (plg^−/− mice [1]; 2.5 mg i.p. daily day 3.5 to 18.5): 25%
- Pregnancies (plg^−/− mice [1]; 2.5 mg i.p. daily day 3.5 to 18.5, 4 mice): 1*
- % pregnant (plg^−/− mice [1]; 2.5 mg i.p. daily day 3.5 to 18.5, listed as G): 25* %
- expression of gelatinase A and stromelysin-3 mRNA in granulation tissue fibroblasts [2]: upregulated
- expression of gelatinase B, collagenase-3 and stromelysin-1 mRNA in leading-edge keratinocytes [2]: dramatically upregulated
- Pregnancies (plg^+/+ mice [3]): 3
- Ki [4]: in the millimolar range
- wounds healed after 38 days (plg^+/+ mice [5]; Galardin 2.5 mg i.p. once daily): 22%
- survival of the tumour-bearing mice (Lewis lung carcinoma; 10 mg TA and 13,000 KIU AP per day i.p., 1.8 mg Galardin per day per mouse): considerable prolongation
- long-term survival (mice per group of 17) (Lewis lung carcinoma; treatment stopped day 50): no long-term survivors
- keratinocyte migration distance (mean value±standard deviation) (Plg-deficient mice): 208±60 arbitrary units
- keratinocyte migration distance (mean value±standard deviation) (wild-type mice): 268±80 arbitrary units
- Ki (plasmin): in the millimolar range
- production of offspring (plg^+/+ mice [6]): unaffected
- Ki (stromelysin-1 (MMP-3)): 0.03 µM
- healed wounds 38 days after wounding (plg^−/− mice [7]): none
- healed wounds after 80 days (plg^−/− mice [7]): none
- change in 5 day postpartum uterine weight versus control (plg^−/− mice [8]; Plg^−/− mice, 90 mg/kg, p=0.012): significant increase
- Mean Weight ± SD (uterus) (plg^−/− mice [8]; plg^−/− mice, 90 mg/kg i.p. daily, fifth day post-partum): 337 ± 70.9 mg
- Weight (uterus) (plg^−/− mice [8]; plg^−/− mice, 90 mg/kg i.p. daily, fifth day post-partum, single animals, 90 mg/kg): 311 mg and 408 mg and 236 mg and 328 mg and 401 mg
- Mean Weight ± SD (uterus) (plg^+/+ mice [9]; 90 mg/kg i.p. daily, fifth day post-partum): 221 ± 65.3 mg
- Weight (uterus) (plg^+/+ mice [9]; 90 mg/kg i.p. daily, fifth day post-partum, single animals, 90 mg/kg): 288 mg and 285 mg and 135 mg and 206 mg and 192 mg
- change in 5 day postpartum uterine weight versus control (plg^+/+ mice [9]; 90 mg/kg, p=0.158): did not produce a significant increase
- Gland 4 Weight (plg^−/− mice [10]; [13]): 262 mg and 342 mg and 251 mg
- Mean Weight (gland 4) (plg^−/− mice [10]; [14]): 285 mg
- % Control (gland weight) (plg^−/− mice [10]; control = plg^+/+ untreated): 262%
- Gland 4 Weight (plg^+/+ mice [11]; [13]): 188 mg and 198 mg and 146 mg
- Mean Weight (gland 4) (plg^+/+ mice [11]; [14]): 177 mg
- % Control (gland weight) (plg^+/+ mice [11]; control = plg^+/+ untreated): 162%

Compound: NC[C@H]1CC[C@H](C(=O)O)CC1 [tranexamic acid]
- time after which all wounds were healed (plg^+/+ mice [5]): 17 days

Compound: aprotinin
- time after which all wounds were healed (plg^+/+ mice [5]): 24 days
- half life ([12]; mouse plasma): approx. 3 h
- plasma level ([12]; mouse): approx. 25 μg/ml
